The values below come from US20260125375A1 (Pfizer Inc., priority 2022, published 2026).

For one assay, the target named is T1, C-CBL (46-435) (Homo sapiens, UniProt P22681).
T1 construct: N-terminal biotinylated WT CBL-B (36-427) and C-CBL (46-435) were captured on a streptavidin (SA) coated sensor chip
T1 sequence (P22681 46-435): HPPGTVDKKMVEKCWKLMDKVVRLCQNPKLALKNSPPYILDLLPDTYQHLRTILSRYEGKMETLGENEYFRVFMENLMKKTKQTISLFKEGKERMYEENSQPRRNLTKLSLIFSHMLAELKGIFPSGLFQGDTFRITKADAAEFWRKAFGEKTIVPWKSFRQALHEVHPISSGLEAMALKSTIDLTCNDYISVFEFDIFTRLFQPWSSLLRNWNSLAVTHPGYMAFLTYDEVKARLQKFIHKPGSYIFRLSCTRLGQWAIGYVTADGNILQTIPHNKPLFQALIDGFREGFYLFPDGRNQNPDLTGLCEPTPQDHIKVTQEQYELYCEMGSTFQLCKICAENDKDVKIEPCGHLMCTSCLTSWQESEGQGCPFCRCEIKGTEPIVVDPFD
Briefly: Surface Plasmon Resonance (SPR) assay, binding affinity and kinetics, C-CBL. As to conditions: SPR at 10° C., biotinylated C-CBL (46-435) on streptavidin chip; geometric mean; read-out: C-CBL SPR Kd (nM) GMean. Summed up:
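SPR kinetics at 10° C, run either single-cycle (0.001–1 μM, 3-fold, 6 points, 120 s on, >5400 s off) or multi-cycle (10 points, 2-fold, top 10 or 100 μM, 90 s on). Proteins were N-biotinylated CBL-B (36-427) and C-CBL (46-435) on SA surfaces, in pH 7.2 HEPES, 2% DMSO.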

The target of the next assay is T2, CBL-B (Homo sapiens, UniProt Q13191).
T2 construct: endogenous in cells; host or cells: Jurkat HiBit-IL2 reporter cells, C-CBL knocked out by CRISPR
T2 sequence (Q13191 whole entry): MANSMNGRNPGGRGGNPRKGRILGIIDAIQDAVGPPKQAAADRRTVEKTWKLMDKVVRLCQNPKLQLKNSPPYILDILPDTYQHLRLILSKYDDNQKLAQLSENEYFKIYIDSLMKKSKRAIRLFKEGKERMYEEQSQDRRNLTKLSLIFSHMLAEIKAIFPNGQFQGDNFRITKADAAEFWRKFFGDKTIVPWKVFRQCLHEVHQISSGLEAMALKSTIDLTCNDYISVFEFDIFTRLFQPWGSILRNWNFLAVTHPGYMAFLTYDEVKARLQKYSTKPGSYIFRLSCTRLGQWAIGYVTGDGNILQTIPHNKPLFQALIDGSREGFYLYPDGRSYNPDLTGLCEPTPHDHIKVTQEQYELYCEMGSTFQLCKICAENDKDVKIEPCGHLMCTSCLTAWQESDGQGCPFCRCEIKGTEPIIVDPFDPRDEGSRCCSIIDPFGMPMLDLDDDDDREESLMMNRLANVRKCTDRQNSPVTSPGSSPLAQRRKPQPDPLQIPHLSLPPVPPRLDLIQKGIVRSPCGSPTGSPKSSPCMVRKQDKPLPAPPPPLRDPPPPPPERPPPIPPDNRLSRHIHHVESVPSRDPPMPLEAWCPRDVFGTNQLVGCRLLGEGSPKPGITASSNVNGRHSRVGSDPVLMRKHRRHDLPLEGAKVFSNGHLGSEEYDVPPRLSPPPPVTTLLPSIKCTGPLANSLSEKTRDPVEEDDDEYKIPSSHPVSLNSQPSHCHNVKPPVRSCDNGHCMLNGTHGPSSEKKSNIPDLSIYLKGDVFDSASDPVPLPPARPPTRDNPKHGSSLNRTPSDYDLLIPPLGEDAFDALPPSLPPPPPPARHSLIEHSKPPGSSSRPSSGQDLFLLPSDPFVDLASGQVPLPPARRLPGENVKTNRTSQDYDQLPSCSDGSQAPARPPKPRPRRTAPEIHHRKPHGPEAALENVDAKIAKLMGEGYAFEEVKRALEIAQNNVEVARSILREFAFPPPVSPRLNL
Briefly: Jurkat HiBit-IL2 assay (c-CBL KO), reporter cell line expressing CBL-B only. Format: cell-based. As to conditions: geometric mean, read-out: C-CBL KO EC50 (nM) GMean. The essentials: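 IL-2 secretion was measured by HiBiT luminescence after 1 h compound exposure (0.1% DMSO) and 4 h TCR/CD28 stimulation (final anti-CD3 1 μg/ml, anti-CD28 2 μg/ml, 37 °C) of Jurkat reporters lacking c-CBL or CBL-B. EC50 came from fold-of-effect versus stimulated-only cells, as geometric means across tests.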

Where [1] appears, read: c-CBL KO (CBL-B only), anti-CD3/anti-CD28 stimulation 4 hours, Table 16a.
Where [2] appears, read: C-CBL KO (expressing CBL-B only), Table 16b (further repetition).

Where two headings read alike, the source gives them in different places.

Turning to `C[C@H](N[C@H]1CCOC1)c1nc(C(F)(F)F)cc2c(-c3cccc([C@H](c4nncn4C)C4CCC4)c3)n[nH]c12` (single isomer, unassigned) [Example C2], the Kd at C-CBL (46-435) is 38.8 nM. The EC50 on CBL-B (setting [1]) came to 54 nM.
Regarding `C[C@@H](N[C@H]1CCOC1)c1nc(C(F)(F)F)cc2c(-c3cccc([C@H](c4nncn4C)C4CCC4)c3)n[nH]c12` (single isomer, unassigned) [Example C3], the Kd on C-CBL (46-435) was found to be 80.7 nM. Moreover, the EC50 at CBL-B (setting [1]) is > 159 nM.
Regarding `C[C@H](NC1CCCC1)c1nc(C(F)(F)F)cc2c(-c3cccc([C@H](c4nncn4C)C4CCC4)c3)n[nH]c12` (single isomer, unassigned) [Example C10], the Kd at C-CBL (46-435) was found to be 189 nM. Also, at CBL-B (setting [1]), the EC50 is 233 nM.
As for `C[C@@H](NC1CCCC1)c1nc(C(F)(F)F)cc2c(-c3cccc([C@H](c4nncn4C)C4CCC4)c3)n[nH]c12` (single isomer, unassigned) [Example C11], on C-CBL (46-435), the Kd is 6.1 nM. In addition, the results for the EC50 on CBL-B (setting [2]) and at CBL-B (setting [1]) were 6 nM and 5 nM, respectively.
For `C[C@H](N[C@H]1CCC(F)(F)C1)c1nc(C(F)(F)F)cc2c(-c3cccc(C4(Cc5nncn5C)COC4)c3)n[nH]c12` (single isomer, unassigned) [Example C12], in that order: 1.8 nM, 8 nM and 4 nM.
With `C[C@@H](N[C@H]1CCC(F)(F)C1)c1nc(C(F)(F)F)cc2c(-c3cccc(C4(Cc5nncn5C)COC4)c3)n[nH]c12` (single isomer, unassigned) [Example C13], the Kd at C-CBL (46-435) was 11.9 nM. In addition, the EC50 on CBL-B (setting [1]) was found to be 16 nM.
`C[C@@H](NC1CCCC1)c1nc(C(F)(F)F)cc2c(-c3cccc(C4(Cc5nncn5C)COC4)c3)n[nH]c12` (single isomer, unassigned) [Example C15]: the Kd on C-CBL (46-435) was found to be 33.9 nM. Besides, the EC50 on CBL-B (setting [1]) came out at 43 nM.
As for `C[C@H](N[C@@H]1CCC(F)(F)C1)c1nc(C(F)(F)F)cc2c(-c3cccc(C4(Cc5nncn5C)COC4)c3)n[nH]c12` (single isomer, unassigned) [Example C17], at C-CBL (46-435), the Kd was found to be 28.3 nM. For the same molecule, the EC50 at CBL-B (setting [1]) is 33 nM.
As for `C[C@@H](N[C@@H]1CCC(F)(F)C1)c1nc(C(F)(F)F)cc2c(-c3cccc(C4(Cc5nncn5C)COC4)c3)n[nH]c12` (single isomer, unassigned) [Example C18], the Kd at C-CBL (46-435) is 6.2 nM. Besides, the figures for the EC50 on CBL-B (setting [2]) and at CBL-B (setting [1]) were 19 nM and 17 nM, respectively.
Turning to `CC(c1nc(C(F)(F)F)cc2c(-c3cccc(C4(Cc5nncn5C)COC4)c3)n[nH]c12)N1CCC[C@H](C)C1` (single isomer, unassigned) [Example C19], the Kd on C-CBL (46-435) was determined as 51.3 nM. For the same molecule, the EC50 at CBL-B (setting [1]) worked out at 56 nM.
Take `CC(c1nc(C(F)(F)F)cc2c(-c3cccc(C4(Cc5nncn5C)COC4)c3)n[nH]c12)N1CCC[C@H](C)C1` (single isomer, unassigned) [Example C20]: the Kd at C-CBL (46-435) was determined as 11.3 nM. For the same molecule, the EC50 at CBL-B (setting [2]) was determined as 15 nM; at CBL-B (setting [1]), 12 nM.
As to `CC(c1nc(C(F)(F)F)cc2c(-c3cccc(C4(Cc5nncn5C)COC4)c3)n[nH]c12)N1CCCCC1` (single isomer, unassigned) [Example C21, 3-(3-{3-[(4-methyl-4H-1,2,4-triazol-3-yl)methyl]oxetan-3-yl}phenyl)-7-[(1ξ)-1-(piperidin-1-yl)ethyl]-5-(trifluoromethyl)-1H-pyrazolo[3,4-c]pyridine], on C-CBL (46-435), the Kd was determined as 108 nM. Further, the EC50 at CBL-B (setting [1]) was found to be 152 nM.
Taken in the same sequence, the figures for `CC(c1nc(C(F)(F)F)cc2c(-c3cccc(C4(Cc5nncn5C)COC4)c3)n[nH]c12)N1CCCCC1` (single isomer, unassigned) [Example C22, 3-(3-{3-[(4-methyl-4H-1,2,4-triazol-3-yl)methyl]oxetan-3-yl}phenyl)-7-[(1ξ)-1-(piperidin-1-yl)ethyl]-5-(trifluoromethyl)-1H-pyrazolo[3,4-c]pyridine] were 116 nM and 120 nM.
Taken in the same sequence, the figures for `CC(c1nc(C(F)(F)F)cc2c(-c3cccc(C4(Cc5nncn5C)COC4)c3)n[nH]c12)N1CCOCC1` (single isomer, unassigned) [Example C23, 3-(3-{3-[(4-methyl-4H-1,2,4-triazol-3-yl)methyl]oxetan-3-yl}phenyl)-7-[(1ξ)-1-(morpholin-4-yl)ethyl]-5-(trifluoromethyl)-1H-pyrazolo[3,4-c]pyridine] were 29.4 nM and 152 nM.
Taken in the same sequence, the figures for `CC(c1nc(C(F)(F)F)cc2c(-c3cccc(C4(Cc5nncn5C)COC4)c3)n[nH]c12)N1CCOCC1` (single isomer, unassigned) [Example C24, 3-(3-{3-[(4-methyl-4H-1,2,4-triazol-3-yl)methyl]oxetan-3-yl}phenyl)-7-[(1ξ)-1-(morpholin-4-yl)ethyl]-5-(trifluoromethyl)-1H-pyrazolo[3,4-c]pyridine] were 146 nM and 434 nM.
Consider `CC(c1nc(C(F)(F)F)cc2c(-c3cccc(C4(Cc5nncn5C)COC4)c3)n[nH]c12)N1C[C@@H](F)[C@H](F)C1` (single isomer, unassigned) [Example C25], for which, at C-CBL (46-435), the Kd turned out to be 31.8 nM. Moreover, on CBL-B (setting [1]), the EC50 came to 49 nM.
Consider `C[C@H](c1nc(C(F)(F)F)cc2c(-c3cccc(C4(Cc5nncn5C)COC4)c3)n[nH]c12)N1C[C@@H](F)[C@H](F)C1` (single isomer, unassigned) [Example C26], for which, at C-CBL (46-435), the Kd amounted to 183 nM. Moreover, the 50% effective concentration (EC50) at CBL-B (setting [1]) was 172 nM.
Turning to `CC(NC1CNC1)c1nc(C(F)(F)F)cc2c(-c3cccc(C4(Cc5nncn5C)COC4)c3)n[nH]c12` (single isomer, unassigned) [Example C27, N-{(1ξ)-1-[3-(3-{3-[(4-methyl-4H-1,2,4-triazol-3-yl)methyl]oxetan-3-yl}phenyl)-5-(trifluoromethyl)-1H-pyrazolo[3,4-c]pyridin-7-yl]ethyl}azetidin-3-amine], on C-CBL (46-435), the Kd was determined as 71 nM. The EC50 on CBL-B (setting [1]) was > 1290 nM.
As for `CC(NC1CNC1)c1nc(C(F)(F)F)cc2c(-c3cccc(C4(Cc5nncn5C)COC4)c3)n[nH]c12` (single isomer, unassigned) [Example C28, N-{(1ξ)-1-[3-(3-{3-[(4-methyl-4H-1,2,4-triazol-3-yl)methyl]oxetan-3-yl}phenyl)-5-(trifluoromethyl)-1H-pyrazolo[3,4-c]pyridin-7-yl]ethyl}azetidin-3-amine], at C-CBL (46-435), the Kd was found to be 125 nM. Also, the EC50 at CBL-B (setting [1]) is > 2070 nM.
For `CC1CN(Cc2nc(C(F)(F)F)cc3c(-c4cccc(C5(Cc6nncn6C)COC5)c4)n[nH]c23)CCC1(F)F` (single isomer, unassigned) [Example C31, 7-{[(3ξ)-4,4-difluoro-3-methylpiperidin-1-yl]methyl}-3-(3-{3-[(4-methyl-4H-1,2,4-triazol-3-yl)methyl]oxetan-3-yl}phenyl)-5-(trifluoromethyl)-1H-pyrazolo[3,4-c]pyridine], in that order: 133 nM and 166 nM.
`CC1CN(Cc2nc(C(F)(F)F)cc3c(-c4cccc(C5(Cc6nncn6C)COC5)c4)n[nH]c23)CCC1(F)F` (single isomer, unassigned) [Example C32, 7-{[(3ξ)-4,4-difluoro-3-methylpiperidin-1-yl]methyl}-3-(3-{3-[(4-methyl-4H-1,2,4-triazol-3-yl)methyl]oxetan-3-yl}phenyl)-5-(trifluoromethyl)-1H-pyrazolo[3,4-c]pyridine]: the Kd at C-CBL (46-435) came out at 42.6 nM. For the same molecule, the EC50 at CBL-B (setting [2]) was 49 nM; on CBL-B (setting [1]), 83 nM.
In the case of `CC(C)NC(C)c1nc(C(F)(F)F)cc2c(-c3cccc([C@H](c4nncn4C)C4CCC4)c3)n[nH]c12` (single isomer, unassigned) [Example C34], the Kd at C-CBL (46-435) amounted to 172 nM. For the same molecule, the figures for the EC50 on CBL-B (setting [2]) and on CBL-B (setting [1]) were 86 nM and 67 nM, respectively.
Take `CC(C)NC(C)c1nc(C(F)(F)F)cc2c(-c3cccc([C@H](c4nncn4C)C4CCC4)c3)n[nH]c12` (single isomer, unassigned) [Example C35]: on C-CBL (46-435), the Kd came out at 54 nM. Also, the EC50 at CBL-B (setting [1]) came to 15 nM.
Turning to `C[C@H](N[C@H]1C[C@@H](O)C1)c1nc(C(F)(F)F)cc2c(-c3cccc([C@H](c4nncn4C)C4CCC4)c3)n[nH]c12` (single isomer, unassigned) [Example C36], the Kd on C-CBL (46-435) was determined as 17.9 nM. Moreover, the EC50 on CBL-B (setting [2]) turned out to be 35 nM; on CBL-B (setting [1]), 20 nM.
Take `C[C@@H](N[C@H]1C[C@@H](O)C1)c1nc(C(F)(F)F)cc2c(-c3cccc([C@H](c4nncn4C)C4CCC4)c3)n[nH]c12` (single isomer, unassigned) [Example C37]: the Kd on C-CBL (46-435) stood at 75.5 nM. Besides, at CBL-B (setting [1]), the EC50 came out at 173 nM.
